# Tests used:
# thrombin = biological target: T1, thrombin (Homo sapiens, UniProt P00734); test: Protease panel: thrombin; assay type: biochemical
# T1 construct: preincubated with thrombin (10 nM, Sigma); purchased Sigma-Aldrich
# trypsin = test: Protease panel: trypsin
# in vitro [1] = settings: mouse, plasma, mouse plasma protein binding
# [2] = tested on: luciferase-expressing VSV (ΔG) pseudotyped with Spike from SARS-CoV-2; test: microbe, parasite or virus in culture; assay type: cell-based; settings: Vesicular stomatitis virus, Vero C1008, read-out: Entry reporter assay pEC50 (converted)
# SARS-CoV-2 M^pro = SARS-CoV-2 M^pro (Severe acute respiratory syndrome coronavirus 2, UniProt P0DTD1); test: biochemical; assay type: biochemical; settings: read-out: M^pro biochemical assay pIC50 (converted)
# physchem [3] = settings: pH 7.4
# [4] = biological target: T2, human cathepsin L (hCTSL) (Homo sapiens, UniProt P07711); test: hCTSL biochemical assay
# T2 construct: purchased R&D Systems
# T2 sequence (P07711 114-333): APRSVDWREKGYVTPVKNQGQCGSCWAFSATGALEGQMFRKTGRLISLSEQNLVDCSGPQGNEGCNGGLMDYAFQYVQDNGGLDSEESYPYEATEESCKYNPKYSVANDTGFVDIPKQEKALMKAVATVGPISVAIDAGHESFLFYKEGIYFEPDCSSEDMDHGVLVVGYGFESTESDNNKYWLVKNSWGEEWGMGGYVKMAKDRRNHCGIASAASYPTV
# [5] = Mouse liver microsomal stability; settings: microsomes, pH 7.4
# in vitro [6] = settings: African green monkey
# physchem [7] = settings: pH 7.4; remark: listed apart in the source
# [8] = Hamster liver microsomal stability; settings: microsomes, pH 7.4
# [9] = biological target: human cathepsin B (hCTSB) (Homo sapiens, UniProt P07858); test: hCTSB biochemical assay
# Neutrophil Elastase 2 = biological target: T3, Neutrophil Elastase 2 (Homo sapiens, UniProt P08246); test: Protease panel: Neutrophil Elastase 2; assay type: biochemical
# T3 construct: neutrophils; tissue Eurofins Discovery (assay service); host or cells: human neutrophils
# T3 sequence (P08246 30-267): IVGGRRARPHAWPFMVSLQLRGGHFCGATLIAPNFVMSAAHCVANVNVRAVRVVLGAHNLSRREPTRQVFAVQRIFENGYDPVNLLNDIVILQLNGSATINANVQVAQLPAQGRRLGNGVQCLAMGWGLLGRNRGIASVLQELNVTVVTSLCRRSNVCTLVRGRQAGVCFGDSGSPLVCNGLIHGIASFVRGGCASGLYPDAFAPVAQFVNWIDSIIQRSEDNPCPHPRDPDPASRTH
# hamster CTSL = hamster CTSL (Mesocricetus auratus, UniProt Q812A7); test: hamster CTSL biochemical assay
# Chain of hamster CTSL (Q812A7 entry or part of it): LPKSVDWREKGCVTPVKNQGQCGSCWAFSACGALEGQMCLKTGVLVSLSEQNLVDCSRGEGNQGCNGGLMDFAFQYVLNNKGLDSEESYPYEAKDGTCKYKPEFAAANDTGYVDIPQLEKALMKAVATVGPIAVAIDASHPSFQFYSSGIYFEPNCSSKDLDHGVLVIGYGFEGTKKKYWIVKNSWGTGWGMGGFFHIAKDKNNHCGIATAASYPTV
# in vitro [10] = settings: hamster, hepatocytes; for hepatocyte CLint at 2 h, 4 µM: CLint (hamster hepatocytes + ritonavir 4:1); for hepatocyte CLint at 2 h, 2 µM: CLint (hamster hepatocytes); for half-life at 2 h, 4 µM: t1/2 (hamster hepatocytes + ritonavir 4:1)
# in vitro [11] = settings: mouse, hepatocytes
# Caspase 2 = biological target: T4, Caspase 2 (Homo sapiens, UniProt P42575); test: Protease panel: Caspase 2; assay type: biochemical
# T4 construct: purchased Eurofins Discovery (assay service); host or cells: E. coli
# T4 sequence (P42575 170-325 limits assumed): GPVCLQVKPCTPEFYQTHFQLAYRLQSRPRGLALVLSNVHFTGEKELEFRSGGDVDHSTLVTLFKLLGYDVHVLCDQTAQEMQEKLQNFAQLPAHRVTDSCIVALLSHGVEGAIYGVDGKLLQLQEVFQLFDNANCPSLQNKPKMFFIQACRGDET
# T4 sequence (P42575 348-452 limits assumed): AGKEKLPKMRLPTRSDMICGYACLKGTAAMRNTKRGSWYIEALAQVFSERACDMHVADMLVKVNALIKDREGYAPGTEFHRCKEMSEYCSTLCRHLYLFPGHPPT
# [12] = 3 h, 2 µM
# [13] = Mouse hepatocyte stability; settings: mouse, cryopreserved hepatocytes
# [14] = biological target: mouse cathepsin L (mCTSL) (Mus musculus, UniProt P06797); test: mCTSL biochemical assay; settings: read-out: pIC50 (mouse CTSL) (converted)
# Chain of mouse cathepsin L (mCTSL) (P06797 114-334): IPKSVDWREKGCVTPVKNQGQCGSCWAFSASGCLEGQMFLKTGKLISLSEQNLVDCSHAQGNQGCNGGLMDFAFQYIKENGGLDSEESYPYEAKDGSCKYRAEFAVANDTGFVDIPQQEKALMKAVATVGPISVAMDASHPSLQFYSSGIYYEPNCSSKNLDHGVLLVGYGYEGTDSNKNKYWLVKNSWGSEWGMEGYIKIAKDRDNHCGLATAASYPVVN
# SARS-CoV-2 = test: microbe, parasite or virus in culture; assay type: cell-based; settings: Severe acute respiratory syndrome coronavirus 2, Vero C1008, read-out: SARS-CoV-2 CPE reduction assay pEC50 (converted)
# [15] = Hamster hepatocyte stability; settings: cryopreserved hepatocytes, t1/2 (hamster hepatocytes), without ritonavir
# Cathepsin D = biological target: T5, Cathepsin D (Homo sapiens, UniProt P07339); test: Protease panel: Cathepsin D; assay type: biochemical
# T5 construct: Human liver; tissue Eurofins Discovery (assay service); host or cells: human liver
# T5 sequence (P07339 65-412): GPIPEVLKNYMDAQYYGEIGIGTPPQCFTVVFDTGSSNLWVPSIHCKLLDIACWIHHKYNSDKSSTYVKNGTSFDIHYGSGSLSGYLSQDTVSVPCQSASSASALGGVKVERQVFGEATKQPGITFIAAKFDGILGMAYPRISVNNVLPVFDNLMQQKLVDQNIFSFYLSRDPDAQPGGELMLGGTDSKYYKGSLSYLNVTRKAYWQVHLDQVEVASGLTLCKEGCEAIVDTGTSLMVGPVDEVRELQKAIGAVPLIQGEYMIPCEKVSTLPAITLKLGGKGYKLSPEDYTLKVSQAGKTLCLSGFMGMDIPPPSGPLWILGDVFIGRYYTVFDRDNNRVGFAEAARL
# in vitro [16] = settings: hamster, microsomes, pH 7.4
# Calpain-1 = biological target: T6, Calpain-1 (Homo sapiens, UniProt P07384); test: Protease panel: Calpain-1; assay type: biochemical
# T6 construct: erythrocytes; tissue Eurofins Discovery (assay service); host or cells: human erythrocytes
# T6 sequence (P07384 1-714): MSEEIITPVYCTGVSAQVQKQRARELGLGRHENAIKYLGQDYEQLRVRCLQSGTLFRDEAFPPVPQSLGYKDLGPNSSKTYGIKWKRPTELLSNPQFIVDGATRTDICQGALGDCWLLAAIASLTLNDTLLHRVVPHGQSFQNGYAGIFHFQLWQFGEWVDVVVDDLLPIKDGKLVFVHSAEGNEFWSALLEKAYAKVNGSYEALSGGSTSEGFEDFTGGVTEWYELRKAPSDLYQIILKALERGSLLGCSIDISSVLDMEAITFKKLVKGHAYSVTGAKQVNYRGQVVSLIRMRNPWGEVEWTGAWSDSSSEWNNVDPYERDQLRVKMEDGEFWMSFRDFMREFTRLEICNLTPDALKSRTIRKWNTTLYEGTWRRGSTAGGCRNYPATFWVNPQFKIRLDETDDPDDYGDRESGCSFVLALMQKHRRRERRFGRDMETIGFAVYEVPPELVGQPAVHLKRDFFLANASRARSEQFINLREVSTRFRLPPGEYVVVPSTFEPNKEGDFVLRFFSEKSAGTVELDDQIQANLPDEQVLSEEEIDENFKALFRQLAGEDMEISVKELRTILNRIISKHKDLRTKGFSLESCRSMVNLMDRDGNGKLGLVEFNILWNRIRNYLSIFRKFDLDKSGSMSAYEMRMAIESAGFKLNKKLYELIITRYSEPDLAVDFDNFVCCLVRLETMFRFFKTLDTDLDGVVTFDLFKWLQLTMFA
# T6 sequence (P04632 1-268 partner): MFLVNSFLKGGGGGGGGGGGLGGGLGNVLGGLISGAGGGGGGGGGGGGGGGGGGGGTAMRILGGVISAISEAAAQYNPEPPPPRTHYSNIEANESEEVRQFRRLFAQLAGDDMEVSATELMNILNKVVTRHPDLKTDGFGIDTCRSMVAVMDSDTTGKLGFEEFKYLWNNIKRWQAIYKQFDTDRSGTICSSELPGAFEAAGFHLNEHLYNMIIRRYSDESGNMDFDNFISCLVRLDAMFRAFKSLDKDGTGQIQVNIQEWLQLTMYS
# in vitro [17] = settings: mouse, microsomes, pH 7.4
# [18] = biological target: mouse cathepsin B (mCTSB) (Mus musculus, UniProt P10605); test: mCTSB biochemical assay; settings: read-out: pIC50 (mouse CTSB) (converted)
# Chain of mouse cathepsin B (mCTSB) (P10605 80-339): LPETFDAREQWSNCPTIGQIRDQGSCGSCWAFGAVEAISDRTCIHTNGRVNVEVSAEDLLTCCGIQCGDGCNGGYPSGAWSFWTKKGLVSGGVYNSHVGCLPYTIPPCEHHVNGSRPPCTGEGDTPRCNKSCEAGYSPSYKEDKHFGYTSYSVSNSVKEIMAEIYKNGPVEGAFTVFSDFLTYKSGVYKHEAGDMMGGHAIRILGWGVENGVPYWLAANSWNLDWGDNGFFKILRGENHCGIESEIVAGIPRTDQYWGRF
# [19] = % remaining at 120 min (hamster hepatocytes, compound/ritonavir 1:1)
# [20] = % remaining at 120 min (hamster hepatocytes, compound/ritonavir 2:1)
# [21] = CLint (hamster hepatocytes, compound/ritonavir 1:1)
# [22] = CLint (hamster hepatocytes, compound/ritonavir 2:1)
# [23] = t1/2 (hamster hepatocytes, compound/ritonavir 1:1)
# [24] = t1/2 (hamster hepatocytes, compound/ritonavir 2:1)
Compound,"fraction unbound at 3 h, 2 µM (in vitro [1]; fraction bound (Fb))","fraction unbound at 3 h, 2 µM (in vitro [1]; fraction unbound (Fu))",solubility kinetic at 24 h (physchem [3]) [µM],hCTSL biochemical assay pIC50 [4],CC50 (in vitro [6]) [nM],logD at 1 h (physchem [7]),half-life at 1 µM [8] [min],hCTSB biochemical assay pIC50 [9],"remaining at 2 h, 1 µM (in vitro [10]; [19]) [%]","remaining at 2 h, 1 µM (in vitro [10]; [20]) [%]","hepatocyte CLint at 2 h, 4 µM (in vitro [10]) [µL/min/1e6 cells]","hepatocyte CLint at 2 h, 2 µM (in vitro [10]) [µL/min/1e6 cells]",hepatocyte CLint at 1 µM (in vitro [10]; [21]) [µL/min/1e6 cells],hepatocyte CLint at 1 µM (in vitro [10]; [22]) [µL/min/1e6 cells],"half-life at 2 h, 4 µM (in vitro [10]) [min]",half-life at 1 µM (in vitro [10]; [23]) [min],half-life at 1 µM (in vitro [10]; [24]) [min],"mouse plasma protein binding, fraction bound (Fb) [12] [%]",half-life at 1 µM [13] [min],IC50 [14] [nM],further results
"COc1cccc2[nH]c(C(=O)N[C@@H](Cc3cccc(F)c3)C(=O)N[C@@H](C[C@@H]3CCNC3=O)C(=O)COc3c(F)c(F)c(C(C)O)c(F)c3F)cc12 (stereo partly drawn) [compound 8, N-((2S)-3-(3-Fluorophenyl)-1-oxo-1-(((2S)-3-oxo-1-((S)-2-oxopyrrolidin-3-yl)-4-(2,3,5,6-tetrafluoro-4-(1-hydroxyethyl)phenoxy)butan-2-yl)amino)propan-2-yl)-4-methoxy-1H-indole-2-carboxamide]",0.0083,0.0083,12.3,7.34,> 1260,3.26,1.08,5.73,7.05,2.78,29.7,33.1,22.6,31.7,23.3,30.7,21.9,99.17,26.9,288,"inhibition at 10 µM (thrombin): -0.2 ± 0.6%; Trypsin inhibition at 10 μM (trypsin): 7.5 ± 4.9%; EC50 [2]: 2880 nM; IC50 (SARS-CoV-2 M^pro): 5.62 nM; half-life at 1 µM [5]: 1.28 min; inhibition at 10 µM (Neutrophil Elastase 2): 2%; pIC50 (hamster CTSL) (hamster CTSL): 7.92 ± 0.18; hepatocyte CLint at 2 h, 2 µM (in vitro [11]; CLint (mouse hepatocytes)): 64.5 µL/min/1e6 cells; inhibition at 10 µM (Caspase 2): 20%; EC50 (SARS-CoV-2): 158 nM; half-life at 2 h, 2 µM [15]: 20.9 min; inhibition at 10 µM (Cathepsin D): 9%; microsomal CLint at 1 µM (in vitro [16]): 1290 µL/min/mg; remaining at 1 h, 1 µM (in vitro [16]): 0%; inhibition at 10 µM (Calpain-1): 5%; microsomal CLint at 1 µM (in vitro [17]): 1100 µL/min/mg; remaining at 1 h, 1 µM (in vitro [17]): 0%"
"CC(C)(C)[C@H](NC(=O)C(F)(F)F)C(=O)N1C[C@H]2[C@@H]([C@H]1C(=O)N[C@@H](C[C@@H]1CCNC1=O)C(=O)COc1c(F)c(F)c(CO)c(F)c1F)C2(C)C [compound 7, (1R,2S,5S)-3-((S)-3,3-Dimethyl-2-(2,2,2-trifluoroacetamido)butanoyl)-6,6-dimethyl-N-((S)-3-oxo-1-((S)-2-oxopyrrolidin-3-yl)-4-(2,3,5,6-tetrafluoro-4-(hydroxymethyl)phenoxy)butan-2-yl)-3-azabicyclo[3.1.0]hexane-2-carboxamide]",0.0355,0.0355,71.3,< 4.30,> 501,2.82,1.73,4.82,20.8,3.47,41.9,50.2,12.5,27.4,16.6,55.5,25.3,96.45,14.3,35500,"inhibition at 10 µM (thrombin): 0.4 ± 0.9%; Trypsin inhibition at 10 μM (trypsin): 9.9 ± 6.6%; hCTSL activity (in words) ([4]; biochemical assay): no hCTSL and hCTSB activity was observed; hCTSB activity (in words) ([9]; biochemical assay): no hCTSL and hCTSB activity was observed; pIC50 (hamster CTSL) (hamster CTSL): 5.07 ± 0.10; IC50 [18]: 1860 nM; hepatocyte CLint at 1 µM (in vitro [11]; CLint (mouse hepatocytes + ritonavir 4:1)): 21.8 µL/min/1e6 cells; hepatocyte CLint at 1 µM (in vitro [11]; CLint (mouse hepatocytes)): 121 µL/min/1e6 cells; EC50 (SARS-CoV-2): 50.1 nM; half-life at 2 h, 2 µM [15]: 13.8 min; microsomal CLint at 1 µM (in vitro [16]): 803 µL/min/mg; remaining at 1 h, 1 µM (in vitro [16]): 0.15%"
"COc1cccc2[nH]c(C(=O)N[C@@H](Cc3cccc(F)c3)C(=O)N[C@@H](C[C@@H]3CCNC3=O)C(=O)COc3c(F)c(F)c(C(C)(C)O)c(F)c3F)cc12 [compound 10, N-((S)-3-(3-Fluorophenyl)-1-oxo-1-(((S)-3-oxo-1-((S)-2-oxopyrrolidin-3-yl)-4-(2,3,5,6-tetrafluoro-4-(2-hydroxypropan-2-yl)phenoxy)butan-2-yl)amino)propan-2-yl)-4-methoxy-1H-indole-2-carboxamide]",0.0105,0.0105,3.65,6.95,> 1260,3.15,2.77,5.94,11.6,2.17,19.4,27.5,16.4,30.7,35.7,42.2,22.6,98.95,36.4,933,"EC50 [2]: 2040 nM; IC50 (SARS-CoV-2 M^pro): 7.08 nM; half-life at 1 µM [5]: 1.9 min; hepatocyte CLint at 2 h, 2 µM (in vitro [11]; CLint (mouse hepatocytes)): 47.6 µL/min/1e6 cells; EC50 (SARS-CoV-2): 120 nM; half-life at 2 h, 2 µM [15]: 25.2 min; microsomal CLint at 1 µM (in vitro [16]): 500 µL/min/mg; remaining at 1 h, 1 µM (in vitro [16]): 0%; microsomal CLint at 1 µM (in vitro [17]): 780 µL/min/mg; remaining at 1 h, 1 µM (in vitro [17]): 0%"

# Source: paper PMC12169608, “Peptidomimetic Phenoxymethyl Ketone Warheads as Potent Dual-Mode Inhibitors against SARS-CoV‑2 M^pro and Cathepsin” (Journal of Medicinal Chemistry, 2025)
